From article PMC3646678, “Sodium-calcium exchangers in rat trigeminal ganglion neurons” (Molecular Pain, 2013)

Test system: T1, NCX1 (Na+-Ca2+ exchanger)
T1 construct: gene Slc8a1
Assay: fura-2 Ca2+ influx by reverse NCX activity (Li+ for Na+ substitution) in native rat TG neurons
Format: cell-based

Row | IC50 | SMILES
1 | 510 nM | CCOC(=O)C1CSC(Cc2ccc(OCc3ccc([N+](=O)[O-])cc3)cc2)N1 (stereo not drawn) [SN-6]
2 | 3080 nM | N=C(N)SCCc1ccc(OCc2ccc([N+](=O)[O-])cc2)cc1 [KB-R7943]
3 | 30 nM | CCOc1ccc(Oc2ccc(OCc3cc(F)ccc3F)cc2)c(N)c1 [SEA0400, 2-[4-[(2,5-difluorophenyl)methoxy]phenoxy]-5-ethoxyaniline]
